Reference: patent US4864023A, “Pyrido(3,2,1-IJ)-1,3,4-benzoxadiazine derivatives” (priority 1988, dated 1989)
Converted amounts (≈) assume the structure as drawn. Where two headings read alike, the source gives them in different places.

Columns and labels:
Experiment in all cases: in vitro antibacterial activity, standard agar dilution method
Assay type in all cases: cell-based
[1] = test system: Staphylococcus aureus NR 2855
[2] = test system: Staphylococcus aureus FDA 209P JC-1; settings: FDA209P, read-out: minimum inhibitory concentration (MIC)
[3] = test system: Enterobacter cloacae NR 2946; settings: NR2946, aerobic, read-out: minimum inhibitory concentration (MIC)
[4] = test system: Citrobacter freundii IFO 12681; settings: IFO12681, aerobic, read-out: minimum inhibitory concentration (MIC)
[5] = test system: Proteus rettgeri ATCC 14505; settings: Providencia rettgeri, ATCC14505, aerobic, read-out: minimum inhibitory concentration (MIC)
[6] = test system: Escherichia coli NIHJ JC-2; settings: NIHJJC2, aerobic, read-out: minimum inhibitory concentration (MIC)
[7] = test system: Staphylococcus epidermidis IFO 12993; settings: IFO12993, aerobic, read-out: minimum inhibitory concentration (MIC)
[8] = test system: Enterococcus faecalis NR 2943; settings: NR2943, aerobic, read-out: minimum inhibitory concentration (MIC)
[9] = test system: Bacillus subtilis PCI 219; settings: PCI219, aerobic, read-out: minimum inhibitory concentration (MIC)
[10] = test system: Pseudomonas stutzeri IFO 12695; settings: Stutzerimonas stutzeri, IFO12695, aerobic, read-out: minimum inhibitory concentration (MIC)
[11] = test system: Staphylococcus aureus Smith; settings: Staphylococcus aureus Smith; aerobic; agar dilution; read-out: minimum inhibitory concentration (MIC)
[12] = test system: Alcaligenes faecalis IFO 13111; settings: IFO13111, aerobic, read-out: minimum inhibitory concentration (MIC)
[13] = test system: Serratia marcescens IFO 12648; settings: IFO12648, aerobic, read-out: minimum inhibitory concentration (MIC)
[14] = test system: Staphylococcus epidermidis NR 2942; settings: NR2942, aerobic, read-out: minimum inhibitory concentration (MIC)
[15] = test system: Bordetella bronchiseptica ATCC 4617; settings: ATCC4617, aerobic, read-out: minimum inhibitory concentration (MIC)
[16] = test system: Pseudomonas aeruginosa A3; settings: aerobic, read-out: minimum inhibitory concentration (MIC)
[17] = test system: Klebsiella pneumoniae FDA PCI 602; settings: FDAPCI602, aerobic, read-out: minimum inhibitory concentration (MIC)
[18] = test system: Pseudomonas aeruginosa NR 2950; settings: NR2950, aerobic, read-out: minimum inhibitory concentration (MIC)
[19] = test system: Proteus vulgaris OX19 ATCC 6898; settings: ATCC6898, aerobic, read-out: minimum inhibitory concentration (MIC)
[20] = test system: Enterobacter aerogenes NR 2945; settings: Klebsiella aerogenes, NR2945, aerobic, read-out: minimum inhibitory concentration (MIC)
[21] = test system: Salmonella typhimurium IFO 12529; settings: Salmonella enterica, aerobic, read-out: minimum inhibitory concentration (MIC)
[22] = test system: Escherichia coli NR 2630; settings: NR2630; Escherichia coli NR 2630; aerobic; agar dilution; read-out: minimum inhibitory concentration (MIC)
[23] = NR2855, Staphylococcus aureus NR 2855, aerobic, agar dilution, read-out: minimum inhibitory concentration (MIC)
[24] = Staphylococcus aureus FDA 209P JC-1, aerobic, agar dilution

Compound | MIC [1, 23] [µg/mL] | MIC [2, 24] [µg/mL] | MIC [3] [µg/mL] | MIC [4] [µg/mL] | MIC [5] [µg/mL] | MIC [6] [µg/mL] | MIC [7] [µg/mL] | MIC [8] [µg/mL] | MIC [9] [µg/mL] | MIC [11] [µg/mL] | MIC [12] [µg/mL] | MIC [13] [µg/mL] | MIC [14] [µg/mL] | MIC [15] [µg/mL] | MIC [16] [µg/mL] | MIC [17] [µg/mL] | MIC [18] [µg/mL] | MIC [19] [µg/mL] | MIC [20] [µg/mL] | MIC [21] [µg/mL] | other results
CN1COc2c(N3CCC(O)CC3)c(F)cc3c(=O)c(C(=O)O)cn1c23 [Example 13, 9-fluoro-10-(4-hydroxy-1-piperidyl)-3-methyl-7-oxo-2,3-dihydro-7H-pyrido[3,2,1-ij]-1,3,4-benzoxadiazine-6-carboxylic acid] | 0.05 (≈ 0.138 µM) | 0.1 (≈ 0.275 µM) | 0.39 (≈ 1.07 µM) | 0.39 (≈ 1.07 µM) | 0.78 (≈ 2.15 µM) | 0.39 (≈ 1.07 µM) | 0.1 (≈ 0.275 µM) | 3.13 (≈ 8.61 µM) | ≤ 0.0008 | 0.025 (≈ 0.0688 µM) | 3.13 (≈ 8.61 µM) | 0.39 (≈ 1.07 µM) | 0.05 (≈ 0.138 µM) | 0.78 (≈ 2.15 µM) | 1.56 (≈ 4.29 µM) | 0.78 (≈ 2.15 µM) | 6.25 (≈ 17.2 µM) | 0.05 (≈ 0.138 µM) | 0.2 (≈ 0.55 µM) | 0.1 (≈ 0.275 µM) | MIC [10]: 0.1 µg/mL (≈ 0.275 µM)
COC1CCN(c2c(F)cc3c(=O)c(C(=O)O)cn4c3c2OCN4C)CC1 [Example 38, 9-fluoro-10-(4-methoxy-1-piperidyl)-3-methyl-7-oxo-2,3-dihydro-7H-pyrido[3,2,1-ij]-1,3,4-benzoxadiazine-6-carboxylic acid] | 0.2 (≈ 0.53 µM) | 0.39 (≈ 1.03 µM) | 6.25 (≈ 16.6 µM) | 6.25 (≈ 16.6 µM) | 25 (≈ 66.2 µM) | 6.25 (≈ 16.6 µM) | 0.39 (≈ 1.03 µM) | 12.5 (≈ 33.1 µM) | ≤ 0.0008 | 0.1 (≈ 0.265 µM) | 6.25 (≈ 16.6 µM) | 12.5 (≈ 33.1 µM) | 0.39 (≈ 1.03 µM) | 6.25 (≈ 16.6 µM) | 25 (≈ 66.2 µM) | 25 (≈ 66.2 µM) | 50 (≈ 132 µM) | 3.13 (≈ 8.29 µM) | 3.13 (≈ 8.29 µM) | 6.25 (≈ 16.6 µM) | MIC [10]: 6.25 µg/mL (≈ 16.6 µM); MIC [22]: 0.39 µg/mL (≈ 1.03 µM)
CN1COc2c(N3CCN(CCO)CC3)c(F)cc3c(=O)c(C(=O)O)cn1c23 [Example 15] | 0.78 (≈ 1.99 µM) | 0.78 (≈ 1.99 µM) | 0.1 (≈ 0.255 µM) | 0.05 (≈ 0.127 µM) | 0.78 (≈ 1.99 µM) | 0.1 (≈ 0.255 µM) | 0.78 (≈ 1.99 µM) | 6.25 (≈ 15.9 µM) | 0.05 (≈ 0.127 µM) | 0.39 (≈ 0.994 µM) | 3.13 (≈ 7.98 µM) | 0.39 (≈ 0.994 µM) | 0.78 (≈ 1.99 µM) | 0.78 (≈ 1.99 µM) | 0.78 (≈ 1.99 µM) | 0.39 (≈ 0.994 µM) | 3.13 (≈ 7.98 µM) | 0.025 (≈ 0.0637 µM) | 0.05 (≈ 0.127 µM) | 0.05 (≈ 0.127 µM) | MIC [10]: 0.05 µg/mL (≈ 0.127 µM)
CN1CCN(c2c(F)cc3c(=O)c(C(=O)O)cn4c3c2OC(CO)N4C)CC1 (stereo not shown) [Example 27] | 12.5 (≈ 31.9 µM) | 1.56 (≈ 3.98 µM) | 0.78 (≈ 1.99 µM) | 0.2 (≈ 0.51 µM) | 12.5 (≈ 31.9 µM) | 0.78 (≈ 1.99 µM) | 6.25 (≈ 15.9 µM) | 50 (≈ 127 µM) | 0.39 (≈ 0.994 µM) | 1.56 (≈ 3.98 µM) | 50 (≈ 127 µM) | 3.13 (≈ 7.98 µM) | 6.25 (≈ 15.9 µM) | 25 (≈ 63.7 µM) | 3.13 (≈ 7.98 µM) | 3.13 (≈ 7.98 µM) | 25 (≈ 63.7 µM) | 0.2 (≈ 0.51 µM) | 0.2 (≈ 0.51 µM) | 0.39 (≈ 0.994 µM) | MIC [10]: 0.2 µg/mL (≈ 0.51 µM)
CC(=O)N1CCN(c2c(F)cc3c(=O)c(C(=O)O)cn4c3c2OCN4C)CC1 [Example 50, 10-(4-acetyl-1-piperazinyl)-9-fluoro-3-methyl-7-oxo-2,3-dihydro-7H-pyrido[3,2,1-ij]-1,3,4-benzoxadiazine-6-carboxylic acid] |  |  | 1.56 (≈ 4 µM) | 3.13 (≈ 8.02 µM) | 6.25 (≈ 16 µM) | 1.56 (≈ 4 µM) | 0.39 (≈ 0.999 µM) | 3.13 (≈ 8.02 µM) | 0.0065 (≈ 0.0167 µM) | 0.1 (≈ 0.256 µM) | 12.5 (≈ 32 µM) | 3.13 (≈ 8.02 µM) | 0.2 (≈ 0.512 µM) | 3.13 (≈ 8.02 µM) | 6.25 (≈ 16 µM) | 6.25 (≈ 16 µM) | 25 (≈ 64 µM) | 0.39 (≈ 0.999 µM) | 0.78 (≈ 2 µM) | 0.78 (≈ 2 µM) | MIC ([1]; Staphylococcus aureus, NR2855, read-out: minimum inhibitory concentration (MIC)): 0.39 µg/mL (≈ 0.999 µM); MIC ([2]; Staphylococcus aureus): 0.39 µg/mL (≈ 0.999 µM); MIC [22]: 0.2 µg/mL (≈ 0.512 µM)
